Drawing on patent US20260001893A1, “SMALL MOLECULE MODULATORS OF STAT6” (Gilead Sciences, Inc., priority 2024, published 2026), this text covers EC50, Kd and Emax for 21 molecules.

For test [1], the system named is Eotaxin-3 (CCL26) release in human whole blood stimulated with IL-4. The test can be described thus: Human whole blood eotaxin-3 assay (IL-4 stimulated eotaxin-3 release). The note with it: Homo sapiens, 48 h, human whole blood stimulated with recombinant human IL-4, 48 h, geometric mean; for EC50: inhibition of eotaxin-3 release, given for test compounds with >80% Emax; for Emax: given for test compounds with <80% Emax. The class given is cell-based. In a few lines: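 Eotaxin-3 (CCL26) release was quantified by MSD immunoassay in supernatants of human heparinised whole blood after 48 h at 37° C with IL-4 ([…] final). Compounds, in 4-fold dilutions at 0.5% DMSO, were added 2 h before stimulation.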

The target in test [2] is T1, Human STAT6 (truncated, aa122-658, with N-terminal His-tag) (Homo sapiens, UniProt P42226).
T1 construct: Human STAT6 (truncated, aa122-658, with N-terminal His-tag, expressed in insect cells); His-tag (N); made in house; host or cells: insect cells
T1 sequence (P42226 122-658): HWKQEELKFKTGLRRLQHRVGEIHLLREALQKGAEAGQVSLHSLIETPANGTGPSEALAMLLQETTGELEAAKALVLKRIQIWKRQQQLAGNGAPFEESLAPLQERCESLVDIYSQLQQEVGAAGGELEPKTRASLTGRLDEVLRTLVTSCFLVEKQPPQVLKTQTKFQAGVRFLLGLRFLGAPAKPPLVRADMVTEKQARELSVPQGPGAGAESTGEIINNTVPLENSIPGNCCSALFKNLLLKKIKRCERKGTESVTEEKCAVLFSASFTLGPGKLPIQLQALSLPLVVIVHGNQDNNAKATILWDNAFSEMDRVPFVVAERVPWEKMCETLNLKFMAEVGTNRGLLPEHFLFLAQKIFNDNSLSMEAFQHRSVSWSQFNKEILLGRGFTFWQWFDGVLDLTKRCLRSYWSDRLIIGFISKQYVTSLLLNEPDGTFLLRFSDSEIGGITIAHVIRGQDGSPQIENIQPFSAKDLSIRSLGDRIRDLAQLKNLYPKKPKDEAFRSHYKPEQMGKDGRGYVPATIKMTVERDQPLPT
The test can be described thus: Surface plasmon resonance (SPR) assay, binding to human STAT6. The settings on record: Biacore 8K, 25° C, immobilized human STAT6 on CM5 chip, multi-cycle kinetics; geometric mean. As for the experimental part: Surface Plasmon Resonance Assay
Biacore instruments from the 8K-series (Cytiva) were used, and measurements were performed at 25° C. Human STAT6 (truncated, aa122-658, with N-terminal His-tag, expressed in insect cells) was immobilized in the active flow cells on a CM5 chip using amine-coupling (default settings) at 10 μg/ml in 10 mM acetate buffer pH 5.5, at a contact time of 120-420 sec. and a flow rate of 10 μl/min. Reference flow cells were deactivated using blank immobilization. PBS-P+(Cytiva) supplemented with 2% DMSO was used as running buffer, and solvent correction was applied. Compounds were tested by multi-cycle kinetics injections using a contact time of 60 sec., dissociation time of up to 300 sec., and a flow rate of 30 μl/min.
Solvent-corrected, reference-subtracted and blank-corrected data was processed and binding isotherms were fitted according to a single report point from each sensorgram (Standard: Late binding (5 sec. before injection end); alternative: Earlier report point according to binding profile). Data fitting was done both with unfixed Rmax and with Rmax fixed to the theoretical value* assuming 1:1 binding to allow processing of data from both weak and strong binders as well as to evaluate binding stoichiometry.
Positive controls were run at the beginning, during, and at the end of the screen to evaluate surface activity.
*Equation for calculation of the theoretical Rmax(Theoretical Rmax=(MW Analyte/MW Ligand)×immobilization level).
A general note: Surface plasmon resonance follows binding to a sensor surface in real time, without labels.

In general, EC50 refers to the concentration giving half of the maximal effect. Usually Kd stands for the free concentration of one partner at which half of the binding sites on the other are occupied at equilibrium, for simple one-to-one binding. Low readings indicate tighter binding, high ones weaker binding. For `CNc1ccn(-c2ccnc3c2cc(CN2CC[C@H](c4ccc(C(=O)N(C)C)cc4)[C@@H](F)C2)n3C)c(=O)c1` (single isomer, unassigned) [Example 1f3], the concentration for a half-maximal effect (EC50) in test [1] stood at 289 nM. The molecule also returned a Kd in test [2] of 32.5 nM.
For `CNc1ccn(-c2ccnc3c2cc(CN2CC[C@@H](c4ccc(C(=O)N(C)C)cc4)[C@H](F)C2)n3C)c(=O)c1` (single isomer, unassigned) [Example 1f4], in that order: 205 nM and 32.2 nM.
For `CNc1ccn(-c2ccnc3c2cc(CN2CC[C@@H](c4ccc(C(=O)N(C)C)cc4)[C@@H](F)C2)n3C)c(=O)c1` (single isomer, unassigned) [Example 1f7], in that order: 245 nM and 21.7 nM.
The matching figures for `CNc1ccn(-c2ccnc3c2cc([C@@H](C)N2CCC(c4ccc(C(=O)N(C)C)cc4)CC2)n3C)c(=O)c1` (single isomer, unassigned) [Example 1m73]: 26 nM and 12.1 nM.
In the case of `CNc1ccn(-c2ccnc3c2cc(CN2CC[C@H](c4ccc(C(=O)N(C)C)cc4)C(F)(F)C2)n3C)c(=O)c1` (stereo in doubt) [Example 1f1, N,N-Dimethyl-4-[(4R)-3,3-difluoro-1-[[1-methyl-4-[4-(methylamino)-2-oxo-1-pyridyl]pyrrolo[2,3-b]pyridin-2-yl]methyl]-4-piperidyl]-benzamide], the concentration for a half-maximal effect (EC50) in test [1] is 98.5 nM. Also, in test [2], the Kd came out at 15 nM.
The matching figures for `CN(C)C(=O)c1ccc(C2CCN(Cc3cc4c(-n5ccc6[nH]nc(C(F)(F)F)c6c5=O)ccnc4n3C)CC2)cc1` [Example 1ab3, N,N-Dimethyl-4-(1-((1-methyl-4-(4-oxo-3-(trifluoromethyl)-1,4-dihydro-5H-pyrazolo[4,3-c]pyridin-5-yl)-1H-pyrrolo[2,3-b]pyridin-2-yl)methyl)piperidin-4-yl)benzamide]: 193 nM and 20.4 nM.
The Emax is the size of the effect at its maximum, as opposed to the concentration needed. As for `CN(C)C(=O)c1ccc(C2CCN(Cc3cc4c(-n5ccc(N)nc5=O)ccnc4n3C)CC2)cc1` [Example 1ab6, 4-(1-((4-(4-Amino-2-oxopyrimidin-1 (2H)-yl)-1-methyl-1H-pyrrolo[2,3-b]pyridin-2-yl)methyl)piperidin-4-yl)-N,N-dimethylbenzamide], the Emax in test [1] is 70 to 80%. The molecule also came in with a dissociation constant Kd in test [2] of 37.3 nM.
For `CN(C)C(=O)c1ccc(C2CCN(Cc3cc4c(-n5cc(F)c(N)nc5=O)ccnc4n3C)CC2)cc1` [Example 1ac2, 4-(1-((4-(4-Amino-5-fluoro-2-oxopyrimidin-1 (2H)-yl)-1-methyl-1H-pyrrolo[2,3-b]pyridin-2-yl)methyl)piperidin-4-yl)-N,N-dimethylbenzamide], in that order: 70 to 80% and 75.4 nM.
For the molecule `CN(C)C(=O)c1ccc(C2CCN(Cc3cc4c(-n5ccc(N)cc5=O)ccnc4n3C)CC2)cc1` [Example 1d1, 4-[1-[[4-(4-Amino-2-oxo-1-pyridyl)-1-methyl-pyrrolo[2,3-b]pyridin-2-yl]methyl]-4-piperidyl]-N,N-dimethyl-benzamide], in test [1], the concentration giving a half-maximal response (EC50) worked out at 119 nM. This molecule yielded a dissociation constant Kd in test [2] of 12.5 nM.
For `CNc1ccn(-c2ccnc3c2cc(CN2CCC(c4ccc(C(=O)N(C)C)cc4)CC2)n3C)c(=O)c1` [Example 1d3, N,N-Dimethyl-4-[1-[[1-methyl-4-[4-(methylamino)-2-oxo-1-pyridyl]pyrrolo[2,3-b]pyridin-2-yl]methyl]-4-piperidyl]benzamide], in that order: 84.1 nM and 18.2 nM.
For `[2H]C([2H])([2H])N(C(=O)c1ccc(C2CCN(Cc3cc4c(-n5ccc(NC)cc5=O)ccnc4n3C)CC2)cc1)C([2H])([2H])[2H]` [Example 1d4, 4-[1-[[1-Methyl-4-[4-(methylamino)-2-oxo-1-pyridyl]pyrrolo[2,3-b]pyridin-2-yl]methyl]-4-piperidyl]-N,N-bis(trideuteriomethyl)benzamide], in that order: 221 nM and 20.9 nM.
Turning to `CN(C)C(=O)c1ccc(C2CCN(Cc3cc4c(-n5cc(F)c(N)cc5=O)ccnc4n3C)CC2)cc1` [Example 1d19, 4-[1-[[4-(4-Amino-5-fluoro-2-oxo-1-pyridyl)-1-methyl-pyrrolo[2,3-b]pyridin-2-yl]methyl]-4-piperidyl]-N,N-dimethyl-benzamide], in test [1], the EC50 came to 257 nM. Besides, in test [2], binding was characterised by a dissociation constant (Kd) of 32.9 nM.
Turning to `CN(C)C(=O)c1ccc(C2CCN(Cc3cc4c(-n5ccc(N)c(Br)c5=O)ccnc4n3C)CC2)cc1` [Example 1d20, 4-[1-[[4-(4-Amino-3-bromo-2-oxo-1-pyridyl)-1-methyl-pyrrolo[2,3-b]pyridin-2-yl]methyl]-4-piperidyl]-N,N-dimethyl-benzamide], the EC50 in test [1] turned out to be 99.3 nM. In addition, the dissociation constant (Kd) in test [2] is 16.1 nM.
On to `Cc1c(N)ccn(-c2ccnc3c2cc(CN2CCC(c4ccc(C(=O)N(C)C)cc4)CC2)n3C)c1=O` [Example 1d21, 4-[1-[[4-(4-Amino-3-methyl-2-oxo-1-pyridyl)-1-methyl-pyrrolo[2,3-b]pyridin-2-yl]methyl]-4-piperidyl]-N,N-dimethyl-benzamide], for which the EC50 in test [1] stood at 95.8 nM. In test [2], this molecule registered a dissociation constant (Kd) of 21 nM.
With `CN(C)C(=O)c1ccc(C2CCN(Cc3cc4c(-n5ccc6c(c5=O)CCN6)ccnc4n3C)CC2)cc1` [Example 1d23, N,N-Dimethyl-4-[1-[[1-methyl-4-(4-oxo-2,3-dihydro-1H-pyrrolo[3,2-c]pyridin-5-yl)pyrrolo[2,3-b]pyridin-2-yl]methyl]-4-piperidyl]benzamide], the Emax in test [1] fell in the range of 70 to 80%. In test [2], this molecule yielded a Kd of 21.8 nM.
For `CNc1ccn(-c2ccnc3c2cc(CN2CCC(c4ccc(C(=O)N(C)C)cc4C)CC2)n3C)c(=O)c1` [Example 1d25, N,N,3-Trimethyl-4-[1-[[1-methyl-4-[4-(methylamino)-2-oxo-1-pyridyl]pyrrolo[2,3-b]pyridin-2-yl]methyl]-4-piperidyl]benzamide], the Emax in test [1] is 70 to 80%. This molecule gave a Kd in test [2] of 69.2 nM.
Consider `CNc1ccn(-c2ccnc3c2cc(CN2CCC(c4c(C)cc(C(=O)N(C)C)cc4C)CC2)n3C)c(=O)c1` [Example 1d27, N,N,3,5-Tetramethyl-4-[1-[[1-methyl-4-[4-(methylamino)-2-oxo-1-pyridyl]pyrrolo[2,3-b]pyridin-2-yl]methyl]-4-piperidyl]benzamide], for which, in test [1], the EC50 amounted to 25.1 nM. The molecule also had a Kd in test [2] of 16 nM.
As for `CN(C)C(=O)c1ccc(C2CCN(Cc3cc4c(-n5ccc(N)c(C(F)(F)F)c5=O)ccnc4n3C)CC2)cc1` [Example 1d29, 4-[1-[[4-[4-Amino-2-oxo-3-(trifluoromethyl)-1-pyridyl]-1-methyl-pyrrolo[2,3-b]pyridin-2-yl]methyl]-4-piperidyl]-N,N-dimethyl-benzamide], in test [1], the EC50 came out at 588 nM. This molecule had a Kd in test [2] of 28.6 nM.
The matching figures for `COCc1c(N)ccn(-c2ccnc3c2cc(CN2CCC(c4ccc(C(=O)N(C)C)cc4)CC2)n3C)c1=O` [Example 1d30, 4-[1-[[4-[4-Amino-3-(methoxymethyl)-2-oxo-1-pyridyl]-1-methyl-pyrrolo[2,3-b]pyridin-2-yl]methyl]-4-piperidyl]-N,N-dimethyl-benzamide]: 88.4 nM and 25 nM.
For the molecule `CN(C)C(=O)c1ccc(C2CCN(Cc3cc4c(-n5ccc(N)c(F)c5=O)ccnc4n3C)CC2)cc1` [Example 1d31, 4-[1-[[4-(4-Amino-3-fluoro-2-oxo-1-pyridyl)-1-methyl-pyrrolo[2,3-b]pyridin-2-yl]methyl]-4-piperidyl]-N,N-dimethyl-benzamide], in test [1], the 50% effective concentration (EC50) came out at 100 nM. For the same molecule, in test [2], binding was characterised by a dissociation constant (Kd) of 22.3 nM.
Consider `CNc1ccn(-c2ccnc3c2cc(CN2CCC(c4ccc(C(=O)N(C)C)cc4F)CC2)n3C)c(=O)c1` [Example 1d34, 3-Fluoro-N,N-dimethyl-4-[1-[[1-methyl-4-[4-(methylamino)-2-oxo-1-pyridyl]pyrrolo[2,3-b]pyridin-2-yl]methyl]-4-piperidyl]benzamide], for which, in test [1], the EC50 turned out to be 29.8 nM. Besides, the Kd in test [2] came to 14.2 nM.
